How the values were obtained:
[1] = system: Enterobius vennicularis (pinworm); test: PpIX accumulation on exposure to exogenous ALA, pinworm; settings: exposed to exogenous ALA
P. chabaudi = system: P. chabaudi
Description: These examples involve the murine malarial parasites Plasmodium yoelii (lethal strain) and Plasmodium chabaudi (non-lethal strain) as models for human malaria.

[2] = system: Lumbricus terrestris (dewworm); test: PpIX accumulation on exposure to exogenous ALA, dewworm; settings: exposed to exogenous ALA
[3] = system: endometrium and myometrium; test: Endometrial fluorescence in vivo following topical application of ALA in the non-human primate; set-up: species or system rhesus monkey; settings: 50 mg ALA into uterine lumen, hysterectomy 3 hours later
Description: 50 mg of ALA was injected into the uterine lumen of an adult, healthy, female rhesus monkey following exposure of the uterus at laparotomy. A hysterectomy was performed 3 hours later and cross sectional slices incorporating endometrial and myometrial tissue were taken from the uterine specimen. These slices were subjected to examination by fluorescence microscopy as in Example 2 and 3 above.

[4] = very large doses; cited from earlier work
P. yoelii [5] = test: In vitro incubation of blood, spleen or marrow cells from P. yoelii infected mice with ALA; format: cell-based, mouse
Description: For the in vitro studies, no ALA was given to the donor mice. Two drops of whole blood were withdrawn from the tail of each mouse and placed in a 35 mm petri dish containing 3 cc of RPMI 1640 without phenol red.
i) a petri dish contained infected whole blood with […] ALA in RPMI.
ii) a second petri dish contained infected whole blood plus RPMI but not ALA.
iii) a third petri dish contained normal whole blood cells with 5 mM ALA in RPMI.
iv) a fourth petri dish contained normal whole blood cells with RPMI but not ALA.
All petri dishes were incubated at 37 Celsius and room air environment. Samples (0.5 cc) were taken at regular intervals from these incubated petri dishes to be analyzed in the flow cytometer to follow accumulation of PpIX.

[6] = system: endometrial and myometrial samples; test: Fluorescence of endometrial and myometrial samples incubated with ALA; format: cell-based; settings: 1 mM ALA
Description: The procedures of Example 1 (U.S. Pat. No. 5,422,093) were repeated with 1, 2, 3, 4 and 5 hour incubation periods using a level of 1 mM of ALA.

C. albicans lesions = test: PpIX fluorescence of intradermal C. albicans lesions in hairless mice given ALA; format: in vivo, mouse; settings: 240 mg/kg ALA intraperitoneal, 3 hours
Description: The procedure of Giger et al. Infection and Immunity 19 (2) 499-509 (February 1978) was used with the following modifications. A clinical specimen of C. albicans was replated in blood agar so it was actively growing and left at room temperature for 72 hours. The sample was suspended in TSB to McFarland 0.5 turbidity after which a 1.0 ml sample was inoculated into an aerobic culture bottle and left shaking for 24 hours on a 37° C. rotor shaker. A 10 ml sample was withdrawn and centrifuged at […] for 10 minutes to separate the cells from the media. The supernate was discarded and the pellet resuspended in 10 ml of TSB. Serial dilusions (10^−1 to 10^−5) were made in and replicated twice on agar and left to incubate for two days at 37° C. […]
Three hours prior to their sacrifice, the mice were given 240 mg/kg ALA (10 mg/ml) by intraperitoneal injection, with the exception of mouse #3 which was used as a control. Fluorescence emission spectra on the live mice were taken every 15 minutes (mouse #1 readings every 20 minutes) for 3 hours after injection on each lesion, and at various control areas of the mice—neck skin flap and lateral side opposite the lesion on mouse 5. […] The frozen lesions were sectioned and slides were prepared for spectral analysis or fluorescence microscopy, H and E staining for histology, and Grocott silver stains for fungi identification.

P. yoelii [7] = system: P. yoelii
Description: (A) Infectivity Assay: Mice infected with P. yoelii were given a standard dose of ALA by intraperitoneal injection. Peripheral blood and/or spleen cells were collected after a standard interval, exposed to standard doses of photoactivating light (including a no-light control) and then injected into normal mice.
Four hours later, its spleen cells were suspended in isotonic saline. Half of the spleen cell suspension was placed on ice and ekxposed to photoactivating light (waveband 600-700 nm, intensity […], total dose 540 J/cm^2), while the other half was kept on ice in the dark. Balb/c mice were injected intraperitoneally with either the light treated or untreated sample. Survival of the mice was followed for 90 days. FIG. 1 illustrates the duration of survival of individual mice following the injection of spleen cells infected with P. yoelii.

L. donovani = test: PpIX accumulation on exposure to exogenous ALA, Leishmania; settings: exposed to exogenous ALA
[8] = cited from earlier work
[9] = system: Candida albicans, Candida glabrata, Cryptococcus neoformans, Penicillium species, Aspergillus niger, Aspergillus fumigatus, Alternaria species, Saccharomyces …; test: In vitro PpIX fluorescence of yeast and fungi treated with ALA; format: cell-based; settings: ALA 1 mM to 100 mM or 20-80% solutions in water
Description: Clinical isolates of Candida albicans, Candida glabrata, and Cryptococcus neoformans and environmental isolates of Penicillium species, Aspergillus niger, Aspergillus fumigatus, and Alternaria species and Saccharomyces cerivisiae (brewer's yeast) obtained from the clinical microbiology laboratories of Kingston General Hospital, Kingston, Ontario, Canada were used. The organisms were plated, and during rapid growth were treated with various concentrations of ALA varying from 1 mM to 100 mM by flooding or by using diffusion wells in the agar, while the isolates of Penicillium and Aspergillus were treated with 40% or 80% solutions of ALA in water and the Penicillium species, Alternaria species, Aspergillus niger and Aspergillus fumigatus were treated with 20% ALA in water via diffusion wells.

[10] = system: Dermatophyte (Trichophyton Species)
[11] = ALA by intraperitoneal injection
[12] = ALA in vivo, then photoactivating light
[13] = exposed to exogenous ALA, Example 10 list
[14] = cells incubated with ALA in vitro

SMILES: NCC(=O)CCC(=O)O [ALA, 5-Amino-4-oxopentanoic acid]
- accumulation of fluorescing concentrations of PpIX [1]: ALA-induced fluorescence
- accumulation of photosensitizing concentrations of PpIX [1]: ALA-induced photosensitization
- PpIX accumulation in non-infected erythrocytes and leukocytes (P. chabaudi; [11]): significant concentrations of PpIX did not accumulate
- PpIX accumulation in plasmodia within erythrocytes (P. chabaudi; [11]): accumulated in many of the plasmodia
- ability of plasmodia to accumulate calcein from calcein-AM (P. chabaudi; [12]): lost their normal ability to accumulate calcein
- ability of plasmodia to cause malaria in recipient mice (P. chabaudi; [12]): lost their ability to cause malaria when injected into recipient mice
- accumulation of fluorescing concentrations of PpIX (P. chabaudi; [13]): ALA-induced fluorescence
- accumulation of photosensitizing concentrations of PpIX (P. chabaudi; [13]): ALA-induced photosensitization
- damage to non-infected erythrocytes and leukocytes (P. chabaudi; mouse, in vivo): showed no morphological evidence of damage
- accumulation of fluorescing concentrations of PpIX [2]: ALA-induced fluorescence
- accumulation of photosensitizing concentrations of PpIX [2]: ALA-induced photosensitization
- fluorescence in endometrium [3]: Fluorescence was observed throughout the endometrium of all slices
- fluorescence in myometrium [3]: No fluorescence was observed
- effect on motor nerve conduction velocity [4]: transient decrease in motor nerve conduction velocity
- PpIX fluorescence of whole blood incubated with ALA, flow cytometer (P. yoelii [5]; ALA in RPMI 1640 (5 nM infected, 5 mM normal blood as printed), 37 Celsius): Only cells from infected mice developed PpIX fluorescence when incubated with ALA
- PpIX accumulation in non-infected erythrocytes and leukocytes (P. yoelii [5]; [14]): significant concentrations of PpIX did not accumulate
- PpIX accumulation in plasmodia within erythrocytes (P. yoelii [5]; [14]): accumulated within many of the plasmodia
- incubation time of maximum fluorescence in endometrial samples [6]: 4 h
- fluorescence in myometrial samples ([6]; 1-5 hour incubation): No significant fluorescence
- fluorescence in endometrial samples ([6]; incubated for 2 hours): No significant fluorescence
- PpIX accumulation in primary and secondary lesions (C. albicans lesions): increased PpIX accumulation relative to the control mice
- ability of plasmodia to accumulate calcein from calcein-AM (P. yoelii [7]; [12]): lost their normal ability to accumulate calcein
- ability of plasmodia to cause malaria in recipient mice (P. yoelii [7]; [12]): lost their ability to cause malaria when injected into recipient mice
- survival of recipients of infected spleen cells (P. yoelii [7]; donor 250 mg/kg ALA, cells exposed to photoactivating light 600-700 nm, 540 J/cm^2): remained in good health for 90 days
- average survival of recipients of infected spleen cells (P. yoelii [7]; donor 250 mg/kg ALA, cells kept in the dark): 15 days
- accumulation of photosensitizing concentrations of PpIX (P. yoelii [7]; [13]): ALA-induced photosensitization
- accumulation of fluorescing concentrations of PpIX (L. donovani): ALA-induced fluorescence
- solubility in water [8]: water soluble
- PpIX accumulation in molds and yeasts [9]: Positive PpIX accumulation
- appearance of toe upon completion of treatment ([10]; human, in vivo): erythematous and somewhat edematous
- subjective response during light exposure ([10]; human, in vivo): itching, stinging, and a sensation of mild burning
- clinical outcome of fungal infection ([10]; over the next few months after one treatment): all clinical evidence of the fungal infection vanished
